Laboratory results taken from patent publication US7071205B2 (Ligand Pharmaceuticals Incorporated, priority 2002, dated 2006).
Where two headings read alike, the source gives them in different places.

How the values were obtained:
hPR [1] = target: T1, hPR (Homo sapiens, UniProt P06401); assay: Cotransfection assay, PR agonist activity in CV-1 cells; assay type: cell-based; details: for PR Agonist CV-1 Cells Efficacy (%): MTV-LUC reporter, percent maximal response relative to progesterone
T1 sequence (P06401 1-933): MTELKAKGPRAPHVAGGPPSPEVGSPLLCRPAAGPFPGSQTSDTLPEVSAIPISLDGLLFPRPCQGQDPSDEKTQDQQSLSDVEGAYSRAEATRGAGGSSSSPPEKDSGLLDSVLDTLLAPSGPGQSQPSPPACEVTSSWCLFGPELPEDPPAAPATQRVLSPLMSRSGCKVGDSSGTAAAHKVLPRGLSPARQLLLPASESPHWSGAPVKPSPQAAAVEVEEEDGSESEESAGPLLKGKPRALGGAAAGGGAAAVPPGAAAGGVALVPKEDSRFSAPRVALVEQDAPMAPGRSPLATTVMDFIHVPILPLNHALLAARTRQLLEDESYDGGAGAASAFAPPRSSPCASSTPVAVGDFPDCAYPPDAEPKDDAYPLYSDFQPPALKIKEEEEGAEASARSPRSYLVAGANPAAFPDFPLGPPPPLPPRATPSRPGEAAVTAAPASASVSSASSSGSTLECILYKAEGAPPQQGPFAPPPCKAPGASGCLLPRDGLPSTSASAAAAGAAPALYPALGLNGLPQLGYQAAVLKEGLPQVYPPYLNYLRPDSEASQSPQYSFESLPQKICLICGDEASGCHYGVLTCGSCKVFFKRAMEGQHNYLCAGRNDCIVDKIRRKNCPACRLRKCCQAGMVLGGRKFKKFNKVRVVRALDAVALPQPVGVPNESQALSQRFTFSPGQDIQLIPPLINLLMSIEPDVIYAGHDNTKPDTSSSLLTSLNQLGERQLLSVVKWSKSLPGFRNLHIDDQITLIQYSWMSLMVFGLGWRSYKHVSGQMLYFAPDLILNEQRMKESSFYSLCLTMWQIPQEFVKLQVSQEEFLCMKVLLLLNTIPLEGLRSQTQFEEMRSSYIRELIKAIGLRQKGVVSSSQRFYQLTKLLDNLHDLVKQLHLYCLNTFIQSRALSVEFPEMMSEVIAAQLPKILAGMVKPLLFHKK
Experimental: (§1) All the cotransfection experiments were carried out in 96-well plates by automation (Beckman Biomomek automated workstation).

hPR [2] = target: T1, hPR; assay: Cotransfection assay, PR antagonist activity in CV-1 cells; assay type: cell-based; details: for IC50: antagonist potency IC50; for PR Antagonist CV-1 Cells Efficacy (%): percent maximal response relative to reference antagonist
Experimental: as §1

hPR-A = target: T2, hPR-A (Homo sapiens, UniProt P06401); assay: Receptor competitive binding assay
T2 sequence (P06401 1-769 isoform P06401-2): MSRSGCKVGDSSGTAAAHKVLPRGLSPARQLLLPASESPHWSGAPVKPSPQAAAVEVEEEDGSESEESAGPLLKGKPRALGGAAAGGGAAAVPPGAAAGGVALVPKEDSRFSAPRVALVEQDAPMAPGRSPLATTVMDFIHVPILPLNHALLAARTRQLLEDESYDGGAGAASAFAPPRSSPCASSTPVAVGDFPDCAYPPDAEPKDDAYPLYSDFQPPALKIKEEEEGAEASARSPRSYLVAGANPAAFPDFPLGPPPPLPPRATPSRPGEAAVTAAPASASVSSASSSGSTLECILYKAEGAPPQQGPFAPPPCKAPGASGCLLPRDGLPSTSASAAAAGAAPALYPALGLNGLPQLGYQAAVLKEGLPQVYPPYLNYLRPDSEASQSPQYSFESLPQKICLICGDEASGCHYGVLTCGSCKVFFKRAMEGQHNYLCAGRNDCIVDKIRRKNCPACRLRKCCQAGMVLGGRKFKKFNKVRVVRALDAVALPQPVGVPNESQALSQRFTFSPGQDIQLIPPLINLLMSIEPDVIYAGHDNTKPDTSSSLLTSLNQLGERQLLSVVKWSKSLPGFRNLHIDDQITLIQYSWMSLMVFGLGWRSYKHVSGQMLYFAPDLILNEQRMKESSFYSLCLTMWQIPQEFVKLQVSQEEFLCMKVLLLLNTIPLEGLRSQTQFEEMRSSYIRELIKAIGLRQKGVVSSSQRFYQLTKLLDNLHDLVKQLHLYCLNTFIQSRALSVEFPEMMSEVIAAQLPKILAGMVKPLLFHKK

immature rabbits = assay: McPhail (Clauberg) assay of progestational activity; assay type: in vivo, rabbit; details: minimum active dose; estradiol-primed immature rabbits, uterine glandular changes
Experimental: The in vivo activity of selected hPR modulator compounds of the present invention were evaluated utilizing the McPhail assay, according to the following illustrative Examples. The Clauberg or McPhail assay is a classic assay utilizing rabbits to measure progestational activity. […] This is followed by treatment with a progestin, which causes a large change in the glandular content of the uterus. It is this change in the glandular component, which is a measure of the progestational activity of a progestin. The measurement of these glandular changes are carried out histologically using stained sections of the uterus. The in vivo potency of the progestins is presented as the minimum active dose (MAD) in mg/kg.

[3] = CV-1 cells, agonist potency EC50, read-out: PR Agonist CV-1 Cells Potency
[4] = Table 2, repeats PR agonist potency of Table 1, read-out: EC50
[5] = Table 2, repeats PR binding Ki of Table 1, read-out: ki

Compound	PR Agonist CV-1 Cells Efficacy (%) (hPR [1]; CV-1 cells)	EC50 (hPR [1]; [3]) [nM]	EC50 (hPR [1]; [4]) [nM]	IC50 (hPR [2]) [nM]	PR Antagonist CV-1 Cells Efficacy (%) (hPR [2])	Ki (hPR-A; [5]) [nM]	Ki (hPR-A; hPR-A, read-out: PR Binding Ki) [nM]	MAD (immature rabbits) [mg/kg]
CC1=CC(C)(C)Nc2ccc3c(c21)C(C1CCC(C)=C1C)Oc1c(F)cc(F)cc1-3 (racemic) [Compound 71, (±)-(5l,1′l)-5-(2,3-dimethyl-2-cyclopentenyl)-7,9-difluoro-1,2-dihydro-2,2,4-trimethyl-5H-chromeno[3,4-f]quinoline]	139	3.4	3.4	> 10000	na (na = not active (i.e. efficacy of <20 and potency of >10,000))	3.9	3.9	0.25
CC1=C[C@H]([C@H]2Oc3c(F)cc(F)cc3-c3ccc4c(c32)C(C)=CC(C)(C)N4)CCC1 (racemic) [Compound 34, (±)-(5l,1′l)-5-(3-methyl-2-cyclohexenyl)-7,9-difluoro-1,2-dihydro-2,2,4-trimethyl-5H-chromeno[3,4-f]quinoline]	164	–	–	–	na (na = not active (i.e. efficacy of <20 and potency of >10,000))	–	–	0.25
CC1=CC(C2Oc3ccc(F)cc3-c3ccc4c(c32)C(C)=CC(C)(C)N4)CCC1 (racemic) [Compound 24, (±)-(5l,1′l)-5-(3-methyl-2-cyclohexenyl)-9-fluoro-1,2-dihydro-2,2,4-trimethyl-5H-chromeno[3,4-f]quinoline]	168	3.6	3.6	> 10000	na (na = not active (i.e. efficacy of <20 and potency of >10,000))	6.4	6.4	0.25
CC1=CC(C2Oc3c(F)cc(F)cc3-c3ccc4c(c32)C(C)=CC(C)(C)N4)CCC1 (single isomer, unassigned; (-)) [Compound 38, (−)-(5l,1′l)-5-(3-methyl-2-cyclohexenyl)-7,9-difluoro-1,2-dihydro-2,2,4-trimethyl-5H-chromeno[3,4-f]quinoline]	166	–	–	–	na (na = not active (i.e. efficacy of <20 and potency of >10,000))	–	–	0.10
